Test results taken from PMC4232042 (Drug Design, Development and Therapy, 2014).

Molecular target: Kv1.5 (Homo sapiens, UniProt P22460)
Test: whole-cell patch clamp in HEK […] cells stably expressing Kv1.[…]
Assay type: cell-based

Sequence of Kv1.5 (P22460 whole entry): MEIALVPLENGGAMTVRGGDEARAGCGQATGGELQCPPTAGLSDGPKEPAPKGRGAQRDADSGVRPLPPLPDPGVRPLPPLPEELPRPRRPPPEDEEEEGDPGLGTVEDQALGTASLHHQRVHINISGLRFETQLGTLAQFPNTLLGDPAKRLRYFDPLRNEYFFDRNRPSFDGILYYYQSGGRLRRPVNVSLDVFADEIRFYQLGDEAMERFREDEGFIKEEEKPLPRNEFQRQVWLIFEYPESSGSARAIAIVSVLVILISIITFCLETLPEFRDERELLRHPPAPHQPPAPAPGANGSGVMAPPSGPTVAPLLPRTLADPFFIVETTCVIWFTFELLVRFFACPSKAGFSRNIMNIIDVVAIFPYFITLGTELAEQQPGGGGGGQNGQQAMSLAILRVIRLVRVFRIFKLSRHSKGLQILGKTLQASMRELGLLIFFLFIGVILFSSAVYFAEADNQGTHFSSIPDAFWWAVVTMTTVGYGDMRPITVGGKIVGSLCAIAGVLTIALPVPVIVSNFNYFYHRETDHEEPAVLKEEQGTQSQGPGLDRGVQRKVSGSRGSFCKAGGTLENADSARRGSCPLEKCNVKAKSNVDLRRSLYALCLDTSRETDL

Cc1ncc2n1-c1ccc(Cl)cc1C(c1ccccc1F)=NC2 [midazolam]
IC50: 17 ± 4.2 µM
